Columns and labels:
PD-1/PD-L1 interaction = molecular target: T1, PD-1/PD-L1 interaction (Homo sapiens, UniProt Q9NZQ7); experiment: PD-1/PD-L1 NFAT reporter co-culture assay; assay type: cell-based; settings: Jurkat PD-1 NFAT-luciferase cells co-cultured with aAPC-PD-L1 CHO cells, 6 hrs at 37° C.; read-out: EC50 NFAT Luciferase
T1 construct: expressed in transfected cells; host or cells: CHO cells (aAPC-PD-L1) co-cultured with Jurkat cells overexpressing PD-1 and an NFAT-luciferase reporter
Summary of the method: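 Jurkat cells overexpressing PD-1 with NFAT-luciferase mixed with compounds and plated onto CHO aAPCs expressing anti-CD3 and PD-L1, RPMI with 2% FBS. Co-culture 6 h at 37 °C; luminescence read with ONE-Glo. EC50 from four-parameter fit.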

[1] = molecular target: T2, interaction between the recombinant extracellular domain (ECD) of PD-1 and native cell-bound PD-L1 (Homo sapiens, UniProt Q9NZQ7); experiment: CHO/PD-L1 cell capture assay; assay type: cell-based; settings: CHO cells overexpressing PD-L1, pre-incubated 1 hr with compound, captured on biotinylated Fc-PD-1 coated plates, 75 min at room temperature
T2 construct: expressed in transfected cells
Protocol: EC50-CHO/PD-L1-Capture Assay:
Compounds were tested in a cell capture assay to determine if they can specifically block the interaction between the recombinant extracellular domain (ECD) of PD-1 and native cell-bound PD-L1. Binding affinity of stable CHO cells overexpressing PD-L1 with its cognate recombinant ligand coated on plates was measured by counting the number of ‘captured’ cells. High-capacity streptavidin- coated plates were incubated with biotylated-Fc-PD-1 for 2 hours in PBS. Unbound ligand was washed out. CHO-PD-L1 cells (resuspended in PBS pH 7.4, 0.5 mM EDTA, and 2% bovine serum albumin) were pre-incubated for 1 hr with compound, dispensed into each PD-1 ECD coated well and then incubated for 75 min at room temperature. To stop the capture assay, a fixative/staining solution (final concentrations are 1.3% glutaraldehyde and 1.67 μM Draq5) was gently added to the cells and incubated for 2 hrs at room temperature. Unbound cells were then washed out and ‘captured’ cells were enumerated using a high-content microscopy system. EC50 values were calculated from the fit of the dose-response curves to a four-parameter equation. Representative data are shown below in Table 2.

T1 sequence (Q9NZQ7 19-290): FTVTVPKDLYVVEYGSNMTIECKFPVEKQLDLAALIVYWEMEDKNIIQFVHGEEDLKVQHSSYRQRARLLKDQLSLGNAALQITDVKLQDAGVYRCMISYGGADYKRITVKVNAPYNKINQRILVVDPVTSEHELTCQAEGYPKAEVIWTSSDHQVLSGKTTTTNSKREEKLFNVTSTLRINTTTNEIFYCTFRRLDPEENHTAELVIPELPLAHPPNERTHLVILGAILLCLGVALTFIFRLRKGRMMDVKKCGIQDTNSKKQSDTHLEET
T2 sequence (Q9NZQ7 19-290): as above

Row | EC50 (PD-1/PD-L1 interaction) [nM] | EC50 [1] [nM] | SMILES
1 | 823 | 169 | COc1nc(OCc2cccc(-c3cccc(COc4nc(OC)c(CN(CCCC(N)=O)CC(=O)O)cc4Br)c3C)c2C)c(Br)cc1CNCCCC(N)=O [Example 118, N-(4-amino-4-oxobutyl)-N-((6-((3′-(((5-(((4-amino-4-oxobutyl)amino)methyl)-3-bromo-6-methoxypyridin-2-yl)oxy)methyl)-2,2′-dimethyl-[1,1′-biphenyl]-3-yl)methoxy)-5-bromo-2-methoxypyridin-3-yl)methyl)glycine]
2 | 79 | 192 | Cc1c(COc2nc(OCc3cc(C#N)cc(C#N)c3)c(CNC[C@@H](O)CC(=O)O)cc2Cl)cccc1-c1cccc(COc2nc(OCc3cc(C#N)cc(C#N)c3)c(CNC[C@@H](O)CC(=O)O)cc2Cl)c1C [Example 122, (3S,3′S)-4,4′-((((((2,2′-dimethyl-[1,1′-biphenyl]-3,3′-diyl)bis(methylene))bis(oxy))bis(5-chloro-2-((3,5-dicyanobenzyl)oxy)pyridine-6,3-diyl))bis(methylene))bis(azanediyl))bis(3-hydroxybutanoic acid)]
3 | 964 | 231 | Cc1c(COc2nc(OCC3CCO3)c(CNC[C@@H](O)CC(=O)O)cc2Br)cccc1-c1cccc(COc2nc(OCC3CCO3)c(CNC[C@@H](O)CC(=O)O)cc2Br)c1C (stereo partly drawn) [Example 131, (3S,3′S)-4,4′-((((((2,2′-dimethyl-[1,1′-biphenyl]-3,3′-diyl)bis(methylene))bis(oxy))bis(5-bromo-2-(oxetan-2-ylmethoxy)pyridine-6,3-diyl))bis(methylene))bis(azanediyl))bis(3-hydroxybutanoic acid)]
4 | 660 | 112 | CNC(=O)CCOc1nc(OCc2cccc(-c3cccc(COc4nc(OCCC(=O)NC)c(CNC[C@@H](O)CC(=O)O)cc4Cl)c3C)c2C)c(Cl)cc1CNC[C@@H](O)CC(=O)O [Example 134, (3S,3′S)-4,4′-((((((2,2′-dimethyl-[1,1′-biphenyl]-3,3′-diyl)bis(methylene))bis(oxy))bis(5-chloro-2-(3-(methylamino)-3-oxopropoxy)pyridine-6,3-diyl))bis(methylene))bis(azanediyl))bis(3-hydroxybutanoic acid)]
5 | 362 | 63.6 | Cc1c(COc2nc(OCCC(N)=O)c(CNC[C@@H](O)CC(=O)O)cc2Br)cccc1-c1cccc(COc2nc(OCCC(N)=O)c(CNC[C@@H](O)CC(=O)O)cc2Br)c1C [Example 145, (3S,3′S)-4,4′-((((((2,2′-dimethyl-[1,1′-biphenyl]-3,3′-diyl)bis(methylene))bis(oxy))bis(2-(3-amino-3-oxopropoxy)-5-bromopyridine-6,3-diyl))bis(methylene))bis(azanediyl))bis(3-hydroxybutanoic acid)]
6 | 124 | 132 | Cc1c(COc2nc(OCc3cc(C#N)ccn3)c(CNC[C@@H](O)CC(=O)O)cc2Br)cccc1-c1cccc(COc2nc(OCc3cc(C#N)ccn3)c(CNC[C@@H](O)CC(=O)O)cc2Br)c1C [Example 148, (3S,3′S)-4,4′-((((((2,2′-dimethyl-[1,1′-biphenyl]-3,3′-diyl)bis(methylene))bis(oxy))bis(5-bromo-2-((4-cyanopyridin-2-yl)methoxy)pyridine-6,3-diyl))bis(methylene))bis(azanediyl))bis(3-hydroxybutanoic acid)]
7 | 668 | 275 | COCCCOc1nc(OCc2cccc(-c3cccc(COc4nc(OCCCOC)c(CNC[C@@H](O)CC(=O)O)cc4Br)c3C)c2C)c(Br)cc1CNC[C@@H](O)CC(=O)O [Example 149, (3S,3′S)-4,4′-((((((2,2′-dimethyl-[1,1′-biphenyl]-3,3′-diyl)bis(methylene))bis(oxy))bis(5-bromo-2-(3-methoxypropoxy)pyridine-6,3-diyl))bis(methylene))bis(azanediyl))bis(3-hydroxybutanoic acid)]
8 | 655 | 319 | COc1nc(OCc2cccc(-c3cccc(COc4nc(OC)c(CNC[C@@H](F)C(=O)O)cc4Cl)c3C)c2C)c(Cl)cc1CNC[C@@H](F)C(=O)O [Example 179, (2R,2′R)-3,3′-((((((2,2′-dimethyl-[1,1′-biphenyl]-3,3′-diyl)bis(methylene))bis(oxy))bis(5-chloro-2-methoxypyridine-6,3-diyl))bis(methylene))bis(azanediyl))bis(2-fluoropropanoic acid)]

The remaining lines, values behind:

Row | SMILES | EC50 (PD-1/PD-L1 interaction) [nM] | EC50 [1] [nM]
9 | COc1nc(OCc2cccc(-c3cccc(COc4nc(OC)c(CN5C[C@@H](O)C[C@H]5C(=O)O)cc4Cl)c3C)c2C)c(Cl)cc1CN1C[C@@H](O)C[C@H]1C(=O)O [Example 48, (2S,2′S,4S,4'S)-1,1′-(((((2,2′-dimethyl-[1,1′-biphenyl]-3,3′-diyl)bis(methylene))bis(oxy))bis(5-chloro-2-methoxypyridine-6,3-diyl))bis(methylene))bis(4-hydroxypyrrolidine-2-carboxylic acid)] | 412 | 298
10 | COc1nc(OCc2cccc(-c3cccc(COc4nc(OC)c(CNC[C@H](O)CC(=O)O)cc4Cl)c3C)c2C)c(Cl)cc1CNC[C@H](O)CC(=O)O [Example 49, (3R,3′R)-4,4′-((((((2,2′-dimethyl-[1,1′-biphenyl]-3,3′-diyl)bis(methylene))bis(oxy))bis(5-chloro-2-methoxypyridine-6,3-diyl))bis(methylene))bis(azanediyl))bis(3-hydroxybutanoic acid)] | 274 | 124
11 | COc1nc(OCc2cccc(-c3cccc(COc4nc(OC)c(CNC[C@H](O)CC(=O)O)cc4C4CC4)c3C)c2C)c(C2CC2)cc1CNC[C@H](O)CC(=O)O [Example 54, (3R,3′R)-4,4′-((((((2,2′-dimethyl-[1,1′-biphenyl]-3,3′-diyl)bis(methylene))bis(oxy))bis(5-cyclopropyl-2-methoxypyridine-6,3-diyl))bis(methylene))bis(azanediyl))bis(3-hydroxybutanoic acid)] | 997 | 233
12 | COc1nc(OCc2cccc(-c3cccc(COc4nc(OC)c(CNC[C@@H](O)CC(=O)O)cc4C4CC4)c3C)c2C)c(C2CC2)cc1CNC[C@@H](O)CC(=O)O [Example 55, (3S,3′S)-4,4′-((((((2,2′-dimethyl-[1,1′-biphenyl]-3,3′-diyl)bis(methylene))bis(oxy))bis(5-cyclopropyl-2-methoxypyridine-6,3-diyl))bis(methylene))bis(azanediyl))bis(3-hydroxybutanoic acid)] | 1520 | 315
13 | COc1nc(OCc2cccc(-c3cccc(COc4nc(OC)c(CN(C)CC(=O)O)cc4Cl)c3C)c2C)c(Cl)cc1CN(C)CC(=O)O [Example 76, 2,2′-((((((2,2′-dimethyl-[1,1′-biphenyl]-3,3′-diyl)bis(methylene))bis(oxy))bis(5-chloro-2-methoxypyridine-6,3-diyl))bis(methylene))bis(methylazanediyl))diacetic acid] | 1060 | 83.2
14 | COc1nc(OCc2cccc(-c3cccc(COc4nc(OC)c(C[N+](C)(C)CC(=O)O)cc4Cl)c3C)c2C)c(Cl)cc1C[N+](C)(C)CC(=O)O [Example 78, 1,1′-((((2,2′-dimethyl-[1,1′-biphenyl]-3,3′-diyl)bis(methylene))bis(oxy))bis(5-chloro-2-methoxypyridine-6,3-diyl))bis(N-(carboxymethyl)-N,N-dimethylmethanaminium)] | 395 | 187
15 | Cc1c(COc2cc(OCc3cncc(C#N)c3)c(CNC[C@@H](O)CC(=O)O)cc2Cl)cccc1-c1cccc(-c2ccc(OCCNC[C@@H](O)CC(=O)O)c(C(F)(F)F)c2)c1C [Example 94, (S)-4-((4-((4″-(2-(((S)-3-carboxy-2-hydroxypropyl)amino)ethoxy)-2,2′-dimethyl-3″-(trifluoromethyl)-[1,1′:3′,1″-terphenyl]-3-yl)methoxy)-5-chloro-2-((5-cyanopyridin-3-yl)methoxy)benzyl)amino)-3-hydroxybutanoic acid] | 210 | 228
16 | Cc1c(COc2cc(OCc3cncc(C#N)c3)c(CNC[C@@H](O)CC(=O)O)cc2Cl)cccc1-c1cccc(-c2ccc(OCCNC[C@@H](O)CC(=O)O)cc2F)c1C [Example 111, (S)-4-((4-((4″-(2-(((S)-3-carboxy-2-hydroxypropyl)amino)ethoxy)-2″-fluoro-2,2′-dimethyl-[1,1′:3′,1″-terphenyl]-3-yl)methoxy)-5-chloro-2-((5-cyanopyridin-3-yl)methoxy)benzyl)amino)-3-hydroxybutanoic acid] | 129 | 45.7
17 | COc1nc(OCc2cccc(-c3cccc(COc4nc(OC)c(CNCCCC(N)=O)cc4Br)c3C)c2C)c(Br)cc1CNCCCC(N)=O [Example 116, 4,4′-((((((2,2′-dimethyl-[1,1′-biphenyl]-3,3′-diyl)bis(methylene))bis(oxy))bis(5-bromo-2-methoxypyridine-6,3-diyl))bis(methylene))bis(azanediyl))dibutanamide] | 702 | 134
